In US20220259172A1, “CHEMICAL INHIBITORS OF ID PROTEINS FOR THE TREATMENT OF CANCER AND OTHER DISEASES” (Universität Heidelberg, priority 2019, published 2022):
Entries after “also recorded” stand apart in the source; their conditions may differ.

How the values were obtained:
HUVECs = test: HUVEC proliferation, CyQUANT assay; assay type: cell-based, Human; conditions: dose-dependent manner (FIG. 11)
Protocol: HUVECs (A) and LECs (B) were cultivated in endothelial cell growth medium. Cells were incubated with the indicated concentrations of X6632. Incubation with DMSO served as a solvent control. After cultivation for the indicated time periods, cells were stained with a CyQUANT™ Cell Proliferation Assay Kit (Thermo Fisher Scientific). The CyQUANT™ dye emits fluorescence after excitation at 485 nm when incorporated in double-stranded DNA, allowing DNA content to be used as a measure of cell numbers. Plates were incubated for 15 min at 37° C. to allow the CyQUANT™ dye to incorporate into DNA. Fluorescence was measured by excitation at 485 nm and detection of emission at 530 nm at 25 positions in each well (signal intensity) using a Tecan Infinite M200 reader.

B16-F10 and Ret cells [1] = test: Proliferation of melanoma cells in 2D culture; assay type: cell-based, murine
B16-F10 and Ret cells [2] = test: 3D Matrigel assay; assay type: cell-based, murine; conditions: daily application in 3D Matrigel
Protocol: X8166 inhibits melanoma cell growth in 3D Matrigel. B16-F10 (A) or Ret (B) control or CRISPR/Cas9 Id1/Id3 cells were seeded in 3D Matrigel (10 mg/ml) and grown for six days before analysis. B16-F10 or Ret cells were treated daily with DMSO or X8166 (7.5 μM). The number of colonies at six positions of each well of a 48-well plate were counted in each z-level (5-10 z-levels were imaged per position).
Cells (2×10^3) were mixed with Matrigel to obtain 150 μl of a cell/Matrigel (10 mg/ml, #354262, Corning Inc.) solution, which was seeded into a well of a 48-well plate. The gel was allowed to solidify at 37° C. for 30 min and was subsequently overlaid with 500 μl complete growth medium. After six days of culture, images were captured using a Leica DMI6000 B microscope at six different x/y positions in every well, and a minimum of five horizontal layers (z levels) at each position, in order to get every cell in focus for image analysis. Image analysis was performed using Fiji software as follows: First, images were transformed into 8-bit files (pixel values from 0 (black) to 255 (white)). The scale was set to distance=0, known=0, pixel=1, and unit=pixel global. Outlines of each colony in focus in every image were detected using the integrated semi-automatic magic wand tool. Once outlines were matching the morphology of the colony were obtained, the colony was filled white (pixel value 255) using the fill function. Thresholding of pixel values (threshold=255) allowed black (background) and white (colonies) images of the filled colonies to be obtained. The “Analyze particles” function was applied to measure the area and perimeter of colonies with a minimum pixel size of 1500. An invasive index was calculated as follows: Invasive index=(perimeter)^2/area, resulting in a unitless measure of invasiveness.

Ret melanoma cells = test: Tumor growth and initiation in vivo, Ret; parameters: species or system mice
Text: B16-F10 (A) or Ret (B) cells were co-injected with Matrigel into syngeneic mice. […] Numbers indicate the number of animals with a tumor in each group. Bar graphs show the mean tumor volume in each group at the day when the first animal had reached the legal tumor size limit. Kaplan-Meier curves show the percentage of tumor-free animals in percent as a measure for tumor initiation.
Cells were harvested using trypsin/EDTA and washed in PBS. The indicated numbers of living melanoma cells were subcutaneously injected into the flank of syngeneic mice in 100 μl PBS. For co-injection experiments, the indicated number of living cells was resuspended in 100 μl Matrigel HC (10 mg/ml, #354262, Corning Inc.), and subcutaneously injected into the flank. Tumor volume was calculated using the formula 4/3π (d1/2×d2/2×d3/2), where d1−d3 represents the diameter of the tumor in three dimensions. […] All animal experiments were approved by the local authorities, and performed according to the German legal requirements. Tumor initiating cell (TIC) frequency and p-values were calculated using ELDA software.
To investigate the anti-tumor properties of the selected Id1/Id3-inhibiting compounds, groups of experimental mice (8 per group) were injected subcutaneously with B16-F10 or Ret melanoma cells. […] Melanoma initiation and growth was assessed over a period of 90 days.

Id1 = Id1 expression in HUVECs, Western blot; assay type: cell-based, Human
Protocol: Human umbilical vein endothelial cells (HUVECs) and lymphatic endothelial cells (LECs) were cultivated in EBM™-2 Endothelial Cell Growth Basal Medium supplemented with EGM™-2 MV Microvascular Endothelial Cell Growth Medium-2 SingleQuots™ Kit (both Lonza, catalogue numbers CC-3156 and CC4176, respectively), hereafter referred to as endothelial cell growth medium. HUVECs and LECs were cultivated in the presence of the indicated concentrations of X6632, or with DMSO as a solvent control. After 24 hours, cells were harvested. Lysates were western blotted and probed with antibodies against Id1 and Id3. Western blots probed with vinculin antibodies served as loading controls.
Western blot analysis was performed using standard methods. The following antibodies were used for protein detection: Id1 (195-14, CalBioreagents), Id3 (17-3, CalBioreagents), β-actin (AC-15, Sigma Aldrich), Vinculin (VIN-11-5, Sigma Aldrich). Protein bands were detected using HRP conjugated secondary antibodies (P0447, P0448, Agilent Technologies) and enhanced chemiluminescence (32106, Thermo Fisher Scientific).
The effect of X6632 on Id1 and Id3 expression in cultivated proliferating human umbilical vein endothelial cells (HUVECs) was investigated. […] LDN-193189, an antagonist of BMP receptor isotypes ALK2 and ALK3, served as a positive control reference for inhibition of Id1 and Id3 expression.

SMILES: CCCCc1cc2c(O)cc(C3(CCCC)CCCCC3)cc2oc1=O [X6632, 7-(1-Butylcyclohexyl)-5-hydroxy-3-butyl-2H-chromen-2-one]
- Proliferation of HUVECs (HUVECs): inhibited
- Proliferation / cytotoxicity, melanoma cells (B16-F10 and Ret cells [1]): strongly inhibited
- 3D assays could not be performed with daily application, reason (B16-F10 and Ret cells [2]): cytotoxicity
- Melanoma growth and initiation (Ret melanoma cells; Ret cells co-injected with Matrigel, syngeneic mice, daily i.p. first 14 days, compared to DMSO): significantly inhibit; also recorded: potent inhibitors
- Number of mice that did not develop any tumors (Ret melanoma cells; Ret cells, 8 mice per group, assessed over 90 days): 1 mice
- Tumor growth and initiation compared to CBD (Ret melanoma cells; Ret experiment, daily i.p. first 14 days): trend towards reduced tumor initiation and growth
- Expression of Id1 protein (Id1; HUVECs, indicated concentrations, 24 hours (FIG. 10B)): inhibits
- Id1 protein expression (Id1; proliferating HUVECs, 24 hours (FIG. 10A)): completely abrogated
